Experimental data: EP0485890A2, “Use of 2,3-disubstituate 1-azolyl-propane for inhibiting the pathogenic growth phase of dimorph yeast cell” (HOECHST AKTIENGESELLSCHAFT, priority 1990, dated 1992)
≈ marks a conversion by molar mass, not a printed value.

How the values were obtained:
[1] = test system: Lysophospholipase (Phospholipase B); assay: In vitro enzyme test: inhibition of released exoenzymes (phospholipase) of Candida albicans blastoconidia on egg-yolk agar; format: cell-based; conditions: Candida albicans Stamm 200/175
Source text: Als Beispiel für die Hemmung der pathogenen Phase dimorpher Hefezellen werden Ergebnisse eines in-vitro-Enzymtests angeführt, in welchen die prozentuale Hemmung freigesetzter Exoenzyme, insbesondere freigesetzter Lysophospholipase (Phospholipase B), als Maß für die Wirksamkeit bestimmt wird.
Zur Feststellung der Enzymhemmung wurde eine Suspension von Candida albicans Blastokonidien (Stamm 200/175), wobei die Keimdichte photometrisch auf eine Extinktion von 0,5 (500 nm) eingestellt war, mit Präparatelösung bzw. zur Kontrolle mit Lösungsmittellösung vermischt und zwar • a) 100 ul Präparatelösung (Suspension) • + 900 µl Keimsuspension • b) 100 µl Lösungsmittel • + 900 µl Keimsuspension • Jeweils 5 µl der 30 min bei 21 ° C inkubierten Blastokonidiensuspension wurden auf eine Agarplatte (Sabourand Agar mit Zusatz von 8 % Eigelb, 1 M NaCI, 5 mM CaC12) aufgetropft. • Die so beimpfte Platte wurde 3 Tage bei 37 ° C bebrütet.
Die Auswertung erfolgte derart, daß • 1. der Durchmesser (mm) der Candida albicans-Kolonie (behandelt und unbehandelt) sowie • 2. der Gesamtdurchmesser von Kolonie und Trübungshof, welcher durch Exoenzyme verursacht wurde (behandelt und unbehandelt) bestimmt wurde.
Aus der Bestimmung des Quotienten von Präparate- und Kontrollgruppe ergab sich ein Wert, der als Maß für die Enzymaktivität anzusehen war.

Candida albicans = assay: Minimal inhibitory concentration (MHK) in vitro; format: cell-based; conditions: read-out: MHK von Candida albicans
Source text: Außerdem wird deutlich, daß zur Erreichung einer ausgeprägten Hemmwirkung der Phospholipase-Aktivität Dosen ausreichen, die deutlich unterhalb derjenigen liegen, die zur Hemmung des Pilzwachstums in vitro nötig sind und welche bisher für eine reine antimykotische Therapie als unbedingt erforderlich erachtet wurden (sihe MHK-Werte von Candida albicans einiger ausgewählter Derivate).

Compound | % Hemmung der Phospholipase ([1]; Konzentration 50 µg/ml) | MIC (Candida albicans) | % Hemmung der Phospholipase ([1]; Konzentration 10 µg/ml) | other results
CCN(CC(Cn1ccnc1)OCc1ccc(Cl)cc1Cl)c1ccc(Cl)c(Cl)c1 (stereo not drawn) [1.16] | 100% | 125 µg/mL (≈ 264 µM) |  | 
C=CCN(CC(Cn1ccnc1)OCc1ccc(Cl)cc1)c1ccc(Cl)cc1 (stereo not drawn) [1.34] | 100% |  | 10,7% | 
CCN(CC(Cn1ccnc1)OCc1ccc(Cl)cc1)c1cccc(C(F)(F)F)c1 (stereo not drawn) [1.17] | 12% |  |  | % Hemmung der Phospholipase ([1]; Konzentration 100 µg/ml): 38%
CCCCCCCCOC(CN(CC)c1ccc(Cl)cc1)Cn1ccnc1 (stereo not drawn) [1.40] | 100% | 125 µg/mL (≈ 319 µM) | 75,0% | 
CC(C)N(CC(Cn1ccnc1)OCc1ccc(Cl)cc1)c1ccc(Cl)c(Cl)c1 (stereo not drawn) [1.3] | 100% | 125 µg/mL (≈ 276 µM) | 25% | 
CC(=NOCC(Cn1ccnc1)OCc1ccc(Cl)cc1)c1ccc(Cl)cc1Cl (stereo not drawn) [1.29] | 100% |  | 20,6% | 
CC(=NOCC(Cn1ccnc1)OCc1ccc(Cl)cc1Cl)c1ccc(Cl)cc1Cl (stereo not drawn) [1.32] | 100% | 125 µg/mL (≈ 257 µM) | 18,2% | 
CC(=NOCC(Cn1ccnc1)OCc1ccc(Cl)cc1Cl)c1ccc(Cl)cc1 (stereo not drawn) [1.23] | 100% |  | 35,7% | 
CCN(CC(Cn1ccnc1)OCc1ccc(Cl)cc1)c1cccc(Cl)c1 (stereo not drawn) [1.25] | 60% |  | 27,3% | 
COC(CN(Cc1ccc(Cl)cc1Cl)c1ccc(Cl)cc1)Cn1ccnc1 (stereo not drawn) [1.37] |  |  | 16,7% | 
CCN(CC(Cn1ccnc1)OCc1ccc(Cl)cc1)c1ccc(Cl)cc1Cl (stereo not drawn) [1.18] | 60% |  |  | 
Clc1ccc(COC(CNc2ccc(Cl)cc2)Cn2ccnc2)cc1 (stereo not drawn) [1.13] | 26% |  |  | % Hemmung der Phospholipase ([1]; Konzentration 100 µg/ml): 33%
OC(CN(Cc1ccc(Cl)cc1)c1ccc(Cl)cc1)Cn1ccnc1 (stereo not drawn) [1.5] | 100% |  |  | 
CCCCN(CC(Cn1ccnc1)OCc1ccc(Cl)cc1)c1ccc(Cl)cc1 (stereo not drawn) [1.33] | 80% | 125 µg/mL (≈ 289 µM) | 24% | 
Clc1ccc(N2CCN(C(COCc3ccc(Cl)cc3Cl)Cn3ccnc3)CC2)cc1 (stereo not drawn) [1.20] | 100% |  |  | 
CC(=NOCC(Cn1ccnc1)OCc1ccc(Cl)cc1)c1ccc(Cl)cc1 (stereo not drawn) [1.24] | 50% |  | 24,3% | 
CCN(CC(Cn1ccnc1)OCc1ccc(Cl)cc1)c1ccc(Cl)cc1 (stereo not drawn) [1.2] | 90% |  |  | 
CCN(CC(Cn1ccnc1)OCc1cccc(Cl)c1)c1ccc(Cl)cc1 (stereo not drawn) [1.21] | 50% | 125 µg/mL (≈ 309 µM) | 12,7% | 
CCN(CC(Cn1ccnc1)OCc1ccc(Cl)cc1)c1ccc(Cl)c(Cl)c1 (stereo not drawn) [1.14] | 30% |  |  | % Hemmung der Phospholipase ([1]; Konzentration 100 µg/ml): 100%

Compound | % Hemmung der Phospholipase ([1]; Konzentration 50 µg/ml) | MIC (Candida albicans) | % Hemmung der Phospholipase ([1]; Konzentration 10 µg/ml) | other results
CCN(CC(Cn1ccnc1)OCc1ccc(Cl)cc1Cl)c1ccc(Cl)cc1 (stereo not drawn) [1.22] | 100% | 125 µg/mL (≈ 285 µM) | 23,1% | 
Clc1ccc(CN2CCN(C(COc3ccc(Cl)cc3Cl)Cn3ccnc3)CC2)cc1 (stereo not drawn) [1.30] | 100% |  |  | 
CC(=NOCC(Cn1ccnc1)Sc1ccc(Cl)cc1)c1ccc(Cl)cc1 (stereo not drawn) [1.26] | 90% |  | 50% | 
Clc1ccc(COC(CN2CCCc3ccccc32)Cn2ccnc2)cc1 (stereo not drawn) [1.43] | 100% |  | 50% | 
Clc1ccc(COC(CN2CCN(c3ccc(Cl)cc3)CC2)Cn2ccnc2)cc1 (stereo not drawn) [1.4] | 100% |  |  | 
CCN(CC(Cn1ccnc1)SCc1ccc(Cl)cc1)c1cccc(C(F)(F)F)c1 (stereo not drawn) [1.19] | 71,4% | 125 µg/mL (≈ 275 µM) |  | 
OC(CN(Cc1ccc(Cl)cc1)Cc1ccc(Cl)cc1)Cn1ccnc1 (stereo not drawn) [1.8] | 100% |  |  | 
Clc1ccc(COC(CN2CCCc3ccccc32)Cn2ccnc2)c(Cl)c1 (stereo not drawn) [1.42] | 100% |  |  | 
Clc1ccc(OCC(Cn2ccnc2)N2CCN(Cc3ccc(Cl)cc3Cl)CC2)cc1 (stereo not drawn) [1.31] | 38,6% |  |  | % Hemmung der Phospholipase ([1]; Konzentration 100 µg/ml): 90%
CN(CC(Cn1ccnc1)OCc1ccc(Cl)cc1Cl)c1ccc(Cl)cc1 (stereo not drawn) [1.12] | 100% |  |  | 
CCCCCCCCN(CC(Cn1ccnc1)OCc1ccc(Cl)cc1)c1ccc(Cl)cc1 (stereo not drawn) [1.35] | 100% | > 125 µg/mL | 45% | 
Clc1ccc(OCC(Cn2ccnc2)N2CCN(c3ccccc3)CC2)cc1 (stereo not drawn) [1.9] | 100% |  |  | 
CCN(CC(Cn1ccnc1)OCc1ccc(Cl)cc1Cl)c1cccc(Cl)c1 (stereo not drawn) [1.28] | 61,5% | 125 µg/mL (≈ 285 µM) |  | % Hemmung der Phospholipase ([1]; Konzentration 100 µg/ml): 100%
CCN(CC(O)Cn1ccnc1)c1ccc(Cl)c(Cl)c1 (stereo not drawn) [1.41] | 100% |  | 33,3% | 
Clc1ccc(SC(COc2ccc(Cl)cc2Cl)Cn2ccnc2)cc1 (stereo not drawn) [1.10] | 50% |  |  | 
Clc1ccc(N2CCN(C(COc3ccc(Cl)cc3Cl)Cn3ccnc3)CC2)cc1 (stereo not drawn) [1.11] | 100% |  |  | 
CCN(CC(Cn1ccnc1)OCC=C(C)CCC=C(C)C)c1ccc(Cl)cc1 (stereo not drawn) [1.1] |  | > 125 µg/mL | 100% | % Hemmung der Phospholipase ([1]; Konzentration 1 µg/ml): 15%; % Hemmung der Phospholipase ([1]; Konzentration 5 µg/ml): 60%
CCN(CC(Cn1ccnc1)Sc1ccc(Cl)cc1)c1ccc(Cl)c(Cl)c1 (stereo not drawn) [1.15] | 100% | 125 µg/mL (≈ 284 µM) |  | 
COC(CN(Cc1ccc(Cl)cc1)c1ccc(Cl)cc1)Cn1ccnc1 (stereo not drawn) [1.6] | 100% |  |  | 
